In US9199946B2, “Pyrimidinone carboxamide inhibitors of endothelial lipase” (BRISTOL-MYERS SQUIBB COMPANY, priority 2012, dated 2015):
Where two headings read alike, the source gives them in different places.

Molecular target: T1, Endothelial lipase (EL) (Homo sapiens, UniProt Q9Y5X9)
T1 construct: HT-1080 cells, which were transformed by RAGE technology (Athersys) to overexpress endogenous EL; endogenous in cells; conditioned medium used as the enzyme source
T1 sequence (Q9Y5X9 21-500): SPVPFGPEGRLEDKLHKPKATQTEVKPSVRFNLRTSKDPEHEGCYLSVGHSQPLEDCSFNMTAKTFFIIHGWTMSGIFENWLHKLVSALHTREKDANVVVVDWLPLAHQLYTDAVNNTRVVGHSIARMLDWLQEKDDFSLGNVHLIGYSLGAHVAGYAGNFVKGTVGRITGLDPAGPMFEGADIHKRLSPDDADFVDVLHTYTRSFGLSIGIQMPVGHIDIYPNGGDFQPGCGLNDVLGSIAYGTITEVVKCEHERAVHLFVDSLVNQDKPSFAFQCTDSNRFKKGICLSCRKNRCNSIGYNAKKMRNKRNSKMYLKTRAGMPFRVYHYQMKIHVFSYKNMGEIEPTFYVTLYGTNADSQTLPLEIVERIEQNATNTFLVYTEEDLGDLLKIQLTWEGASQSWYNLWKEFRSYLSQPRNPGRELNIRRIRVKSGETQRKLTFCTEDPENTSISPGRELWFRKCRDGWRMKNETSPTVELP
Assay: Endothelial lipase (EL) enzymatic assay with fluorescent substrate A10070 in DMPG vesicles
Format: biochemical
In short: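 The enzyme source was conditioned medium from HT-1080 cells engineered to overexpress endogenous EL. It was preincubated with compound for 20 min at 37 °C in 50 mM HEPES pH 8.0, 50 mM NaCl, 1 mM CaCl2. Reactions started with DMPG vesicles carrying FRET substrate A10070 (mole fraction 0.05). The rate was taken from the linear slope of fluorescence (ex 488/em 530 nm) over 10 min.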

[1] = conditioned media from HT-1080 cells overexpressing endogenous EL, 20 min preincubation at 37° C., read-out: EL IC50
[2] = range observed in the EL assay, read-out: EL IC50 values

Row | SMILES | IC50 [1] [µM] | IC50 [2] [µM]
1 | CS(=O)(=O)N1CCC(NC(=O)c2[nH]c(=O)[nH]c(=O)c2N)c2ccccc21 (centres unmarked) [Example 24, 5-amino-N-(1-(methylsulfonyl)-1,2,3,4-tetrahydroquinolin-4-yl)-2,6-dioxo-1,2,3,6-tetrahydropyrimidine-4-carboxamide] | 0.568 | ≤ 10
2 | O=C(N[C@H]1CCc2ccc(OCc3ccccc3)cc21)c1[nH]c(=O)[nH]c(=O)c1O [Example 259, (S)-N-(6-(benzyloxy)-2,3-dihydro-1H-inden-1-yl)-5-hydroxy-2,6-dioxo-1,2,3,6-tetrahydropyrimidine-4-carboxamide] | 0.01 | ≤ 10
3 | O=C(NC1CCCc2c(CCc3ccccc3)cccc21)c1[nH]c(=O)[nH]c(=O)c1O (centres unmarked) [Example 284, 5-hydroxy-2,6-dioxo-N-(5-phenethyl-1,2,3,4-tetrahydronaphthalen-1-yl)-1,2,3,6-tetrahydropyrimidine-4-carboxamide] |  | ≤ 10
4 | O=C(N[C@H]1CC[C@@H](c2ccccc2)CC1)c1[nH]c(=O)[nH]c(=O)c1NCc1ccc(C(F)(F)F)cc1 [Example 220, 2,6-dioxo-N-(cis-4-phenylcyclohexyl)-5-(4-(trifluoromethyl)benzylamino)-1,2,3,6-tetrahydropyrimidine-4-carboxamide] |  | ≤ 10
5 | Nc1c(C(=O)N[C@H]2CC[C@@H](OCc3ccccc3)CC2)[nH]c(=O)[nH]c1=O [Example 95, 5-amino-N-(cis-4-(benzyloxy)cyclohexyl)-2,6-dioxo-1,2,3,6-tetrahydropyrimidine-4-carboxamide] |  | ≤ 10
6 | Nc1c(C(=O)N[C@@H]2CCCc3c(NCc4ccccc4)cccc32)[nH]c(=O)[nH]c1=O [Example 123, (R)-5-amino-N-(5-(benzylamino)-1,2,3,4-tetrahydronaphthalen-1-yl)-2,6-dioxo-1,2,3,6-tetrahydropyrimidine-4-carboxamide] |  | ≤ 10
7 | COc1ccc2c(c1)C(NC(=O)c1[nH]c(=O)[nH]c(=O)c1N)CC2 (single isomer, unassigned) [Example 73, 5-amino-N-(6-methoxy-2,3-dihydro-1H-inden-1-yl)-2,6-dioxo-1,2,3,6-tetrahydropyrimidine-4-carboxamide] | 0.468 | ≤ 10
8 | O=C(N[C@H]1CC[C@@H](c2ccccc2)CC1)c1[nH]c(=O)[nH]c(=O)c1N[C@@H]1C[C@H]2CC[C@@H]1C2 [Example 231, 5-((1R,2R,4S)-bicyclo[2.2.1]heptan-2-ylamino)-2,6-dioxo-N-(cis-4-phenylcyclohexyl)-1,2,3,6-tetrahydropyrimidine-4-carboxamide] | 3.84 | ≤ 10
9 | NC(=O)c1ccc(N2CCC(NC(=O)c3[nH]c(=O)[nH]c(=O)c3N)C2)nc1 (centres unmarked) [Example 188, 5-amino-N-(1-(5-carbamoylpyridin-2-yl)pyrrolidin-3-yl)-2,6-dioxo-1,2,3,6-tetrahydropyrimidine-4-carboxamide] |  | ≤ 10
10 | Nc1c(C(=O)N[C@H]2CC[C@H](c3ccccc3)c3ccccc32)[nH]c(=O)[nH]c1=O [Example 71, 5-amino-2,6-dioxo-N-((1S,4R)-4-phenyl-1,2,3,4-tetrahydronaphthalen-1-yl)-1,2,3,6-tetrahydropyrimidine-4-carboxamide] |  | ≤ 10
11 | O=C(N[C@H]1CC[C@@H](c2ccccc2)CC1)c1[nH]c(=O)n(CCCc2ccccc2)c(=O)c1O [Example 270, 5-Hydroxy-2,6-dioxo-N-(cis-4-phenylcyclohexyl)-1-(3-phenylpropyl)-1,2,3,6-tetrahydropyrimidine-4-carboxamide] |  | ≤ 10
12 | COc1cccc2c1CCC[C@H]2NC(=O)c1[nH]c(=O)[nH]c(=O)c1O [Example 261, (R)-5-hydroxy-N-(5-methoxy-1,2,3,4-tetrahydronaphthalen-1-yl)-2,6-dioxo-1,2,3,6-tetrahydropyrimidine-4-carboxamide] |  | ≤ 10
13 | CN(C)c1cccc(-c2ccc([C@@H]3CC[C@H](NC(=O)c4[nH]c(=O)[nH]c(=O)c4N)C3)cc2)c1 [Example 166, 5-amino-N-((1S,3R)-3-(3′-(dimethylamino)biphenyl-4-yl)cyclopentyl)-2,6-dioxo-1,2,3,6-tetrahydropyrimidine-4-carboxamide] |  | ≤ 10
14 | O=C(N[C@H]1CCCc2ccccc21)c1[nH]c(=O)[nH]c(=O)c1OCCO [Example 299, (S)-5-(2-Hydroxyethoxy)-2,6-dioxo-N-(1,2,3,4-tetrahydronaphthalen-1-yl)-1,2,3,6-tetrahydropyrimidine-4-carboxamide] | 9.56 | ≤ 10
15 | Nc1c(C(=O)NC2CCCN(c3nccc(C(F)(F)F)n3)C2)[nH]c(=O)[nH]c1=O (centres unmarked) [Example 184, 5-amino-2,6-dioxo-N-(1-(4-(trifluoromethyl)pyrimidin-2-yl)piperidin-3-yl)-1,2,3,6-tetrahydropyrimidine-4-carboxamide] | 5.71 | ≤ 10
16 | CCn1c(=O)c(O)c(C(=O)N[C@H]2CC[C@@H](c3ccccc3)CC2)n(Cc2ccccc2)c1=O [Example 240, 3-Benzyl-1-ethyl-5-hydroxy-2,6-dioxo-N-(cis-4-phenylcyclohexyl)-1,2,3,6-tetrahydropyrimidine-4-carboxamide] | 0.024 | ≤ 10
17 | O=C(N[C@H]1CC[C@@H](c2ccccc2)CC1)c1[nH]c(=O)[nH]c(=O)c1NCC(F)(F)F [Example 228, 2,6-dioxo-N-(cis-4-phenylcyclohexyl)-5-(2,2,2-trifluoroethylamino)-1,2,3,6-tetrahydropyrimidine-4-carboxamide] |  | ≤ 10
18 | Nc1c(C(=O)N[C@@H]2CCc3ccccc32)[nH]c(=O)[nH]c1=O [Example 9, (R)-5-amino-N-(2,3-dihydro-1H-inden-1-yl)-2,6-dioxo-1,2,3,6-tetrahydropyrimidine-4-carboxamide] |  | ≤ 10
19 | Nc1c(C(=O)N[C@H]2CC[C@@H](c3ccc(-c4ccc(CO)cc4)cc3)C2)[nH]c(=O)[nH]c1=O [Example 177, 5-amino-N-((1S,3R)-3-(4′-(hydroxymethyl)biphenyl-4-yl)cyclopentyl)-2,6-dioxo-1,2,3,6-tetrahydropyrimidine-4-carboxamide] |  | ≤ 10
20 | O=C(Cc1ccccc1)N[C@H]1CC[C@@H](NC(=O)c2[nH]c(=O)[nH]c(=O)c2O)CC1 [Example 279, 5-hydroxy-2,6-dioxo-N-(cis-4-(2-phenylacetamido)cyclohexyl)-1,2,3,6-tetrahydropyrimidine-4-carboxamide] |  | ≤ 10
21 | COC(=O)C[C@H]1C[C@H](NC(=O)c2[nH]c(=O)[nH]c(=O)c2N)c2ccccc2[C@@H]1c1ccccc1 [Example 21, methyl 2-((1S,2R,4S)-4-(5-amino-2,6-dioxo-1,2,3,6-tetrahydropyrimidine-4-carboxamido)-1-phenyl-1,2,3,4-tetrahydronaphthalen-2-yl)acetate] |  | ≤ 10
22 | COC(=O)[C@@H]1C[C@H](NC(=O)c2[nH]c(=O)[nH]c(=O)c2N)c2ccccc21 [Example 12, (1R,3S)-methyl 3-(5-amino-2,6-dioxo-1,2,3,6-tetrahydropyrimidine-4-carboxamido)-2,3-dihydro-1H-indene-1-carboxylate] |  | ≤ 10
23 | Nc1c(C(=O)N[C@@H]2CC[C@@H](C(=O)Nc3cnn(Cc4ccccc4)c3)C2)[nH]c(=O)[nH]c1=O [Example 149, 5-amino-N-((1R,3R)-3-(1-benzyl-1H-pyrazol-4-ylcarbamoyl)cyclopentyl)-2,6-dioxo-1,2,3,6-tetrahydropyrimidine-4-carboxamide] |  | ≤ 10
24 | COc1ccc(-c2ccc([C@@H]3CC[C@H](NC(=O)c4[nH]c(=O)[nH]c(=O)c4N)C3)cc2)cc1OC [Example 161, 5-amino-N-((1S,3R)-3-(3′,4′-dimethoxybiphenyl-4-yl)cyclopentyl)-2,6-dioxo-1,2,3,6-tetrahydropyrimidine-4-carboxamide] |  | ≤ 10
25 | O=C(N[C@H]1CC[C@@H](c2ccccc2)CC1)c1[nH]c(=O)[nH]c(=O)c1NCc1cccc(C(F)(F)F)c1 [Example 222, 2,6-dioxo-N-(cis-4-phenylcyclohexyl)-5-(3-(trifluoromethyl)benzylamino)-1,2,3,6-tetrahydropyrimidine-4-carboxamide] |  | ≤ 10
26 | O=C(Cn1c(=O)[nH]c(C(=O)N[C@H]2CC[C@@H](c3ccccc3)CC2)c(O)c1=O)N[C@H]1CC[C@@H](c2ccccc2)CC1 [Example 268, 5-Hydroxy-2,6-dioxo-1-(2-oxo-2-((cis-4-phenylcyclohexyl)amino)ethyl)-N-(cis-4-phenylcyclohexyl)-1,2,3,6-tetrahydropyrimidine-4-carboxamide] |  | ≤ 10
27 | Nc1c(C(=O)N[C@H]2CC[C@@H](c3ccc(-c4ccnn4C4CCCCO4)cc3)C2)[nH]c(=O)[nH]c1=O (stereo partly drawn) [Example 176, 5-amino-2,6-dioxo-N-((1S,3R)-3-(4-(1-(tetrahydro-2H-pyran-2-yl)-1H-pyrazol-5-yl)phenyl)cyclopentyl)-1,2,3,6-tetrahydropyrimidine-4-carboxamide] | 1.09 | ≤ 10
